From patent publication US20090088345A1, “NECESSARY AND SUFFICIENT REAGENT SETS FOR CHEMOGENOMIC ANALYSIS” (priority 2004, published 2009)

System: PPARα signature
Assay: Scalar product (signature score) of compound treatments against PPARα gene signatures from rat liver microarray expression profiles
Assay type: in vivo
Settings: previous observation, original PPARα signature
Description: “Scalar product” (or “Signature score”) as used herein refers to the sum of impacts for all genes in a signature less the bias for that signature.
The detailed description of the construction of this chemogenomic dataset is described in Examples 1 and 2 of Published U.S. Pat. Appl. No. 2005/0060102 A1, published Mar. 17, 2005, which is hereby incorporated by reference for all purposes. Briefly, in vivo short-term repeat dose rat studies were conducted on over 580 test compounds, including marketed and withdrawn drugs, environmental and industrial toxicants, and standard biochemical reagents. Rats (three per group) were dosed daily at either a low or high dose. The low dose was an efficacious dose estimated from the literature and the high dose was an empirically-determined maximum tolerated dose, defined as the dose that causes a 50% decrease in body weight gain relative to controls during the course of the 5 day range finding study. Animals were necropsied on days 0.25, 1, 3, and 5 or 7. […]
Log10-ratios are computed for each gene as the difference of the averaged logs of the experimental signals from (usually) three drug-treated animals and the averaged logs of the control signals from (usually) 20 mock vehicle-treated animals. To assign a significance level to each gene expression change, the standard error for the measured change between the experiments and controls is computed. […]

CC(C)(Oc1ccc(Cl)cc1)C(=O)O [clofibric acid]
scalar product against the PPARα signature: weakest of the known PPARα agonists
